Experimental data reported in patent US11999746B2, “Compounds” (GlaxoSmithKline Intellectual Property Development Limited, priority 2014, dated 2024).
Counter-ions that a name gives are not always drawn.

What was measured:
Lp-PLA2 in human plasma = target: T1, Lp-PLA2 in human plasma (Homo sapiens, UniProt Q13093); experiment: (3a) Lp-PLA2 human plasma Thio-PAF assay; type: biochemical; conditions: (3a) Thio-PAF assay, pooled human plasma; Examples 1-265 and 413-430 were tested here; read-out: pIC50 in the Lp-PLA2 human plasma assay (converted)
T1 construct: from tissue; host or cells: pooled human plasma
T1 sequence (Q13093 22-441): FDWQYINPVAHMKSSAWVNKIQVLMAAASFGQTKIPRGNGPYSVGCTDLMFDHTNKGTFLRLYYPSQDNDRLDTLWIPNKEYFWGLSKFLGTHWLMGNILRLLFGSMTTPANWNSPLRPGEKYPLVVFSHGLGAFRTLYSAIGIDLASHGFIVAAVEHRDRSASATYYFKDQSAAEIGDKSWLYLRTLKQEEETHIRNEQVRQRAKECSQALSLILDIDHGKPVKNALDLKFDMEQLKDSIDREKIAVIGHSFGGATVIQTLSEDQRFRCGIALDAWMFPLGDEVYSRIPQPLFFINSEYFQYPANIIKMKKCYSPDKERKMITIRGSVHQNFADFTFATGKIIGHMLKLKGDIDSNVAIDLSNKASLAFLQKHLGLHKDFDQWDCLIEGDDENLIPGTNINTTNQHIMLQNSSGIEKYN
Outline: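 Endogenous Lp-PLA2 activity in frozen pooled human plasma measured as thiol release from 2-thio-PAF, detected by CPM fluorescence (ex 380/em 485). Compound preincubation 30 min; 2-min reaction in HEPES pH 7.4 buffer with NEM, stopped with 5% TFA, read 40 min later at room temperature; values as pIC50.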

[1] = target: T2, recombinant human Lp-PLA2 (Homo sapiens, UniProt Q13093); experiment: (1a) PED6 assay, recombinant human Lp-PLA2 (rhLp-PLA2); type: biochemical; conditions: Examples 1-167 and 413-430 were tested here, one experiment or average of multiple experiments, read-out: rhLp-PLA2 (pIC50) (converted)
T2 sequence (Q13093 22-441): T1 sequence (Q13093 22-441)
Outline: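 PED6 (2 μM final after 1:1 addition of 4 μM stock) cleavage by rhLp-PLA2 (4 nM working solution) in 50 mM HEPES pH 7.4, 150 mM NaCl, 1 mM CHAPS; compounds preincubated with enzyme 30 minutes, reaction 20 min at room temperature. Fluorescence at ex 480/em 540; pIC50 from curve fit.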

IC50 (Lp-PLA2 in human plasma) [nM] | IC50 [1] [nM] | SMILES
≤ 10000 | ≤ 100 | O=c1nc(OCc2cc(F)cc(F)c2)cc2n1C[C@@H]1COCCN21 [Example E133, (R)-7-((3,5-difluorobenzyl)oxy)-3,4,11,11a-tetrahydropyrimido[6′,1′:2,3]imidazo[5,1-c][1,4] oxazin-9(1H)-one]
≤ 10000 | ≤ 100 | N#Cc1cccc(COc2cc3n(c(=O)n2)C[C@@H]2CCCCN32)c1 [Example E33, (S)-3-(((1-Oxo-6,7,8,9,9a,10-hexahydro-1H-pyrido[1′,2′:3,4]imidazo[1,2-c]pyrimidin-3-yl)oxy)methyl)benzonitrile]
≤ 10000 | ≤ 100 | CN1c2cc(OCc3ccc(F)cc3F)nc(=O)n2CC12CCC2 [Example 416, 7′4(2,4-difluorobenzyhoxy)-1-methyl-1H-spiro[cyclobutane-1,2′-imidazo[1,2-c]pyrimidin]-5′(3′H)-one]
≤ 10000 | ≤ 100 | O=c1nc(OCc2cccc(F)c2)cc2n1C[C@@H]1CCCCN21 [Example E60, (S)-3-((3-Fluorobenzyl)oxy)-6,7,8,9,9a,10-hexahydro-1H-pyrido[1′,2′:3,4]imidazo[1,2-c] pyrimidin-1-one]
≤ 10000 | ≤ 100 | CCCn1cc(Oc2c(F)cc(COc3cc4n(c(=O)n3)C[C@@H]3COCN43)cc2F)cn1 [Example E156, (R)-6-((3,5-difluoro-4-((1-propyl-1H-pyrazol-4-yl)oxy)benzyl)oxy)-10,10a-dihydro-1H-oxazolo[3′,4′:3,4]imidazo[1,2-c]pyrimidin-8(3H)-one]
≤ 10000 | ≤ 100 | CN1c2cc(OCc3cc(F)c(F)c(F)c3)nc(=O)n2CC12CCCCC2 [Example 422, 1′-methyl-7′-((3,4,5-trifluorobenzyl)oxy)-1′H-spiro[cyclohexane-1,2′-imidazo[1,2-c]pyrimidin]-5′(3′H)-one]
≤ 100 | ≤ 1 | N#Cc1cc(Oc2ccc(COc3cc4n(c(=O)n3)CC3CCCCN43)cc2F)cc(C(F)(F)F)c1 (centres unmarked) [Example E28, 3-(2-Fluoro-4-(((1-oxo-6,7,8,9,9a,10-hexahydro-1H-pyrido[1′,2′:3,4]imidazo[1,2-c]pyrimidin-3-yl)oxy)methyl)phenoxy)-5-(trifluoromethyl)benzonitrile]
≤ 10000 | ≤ 100 | O=c1nc(OCc2ccc(F)cc2)cc2n1CC1CCCCN21 (centres unmarked) [Example E1, 3-((4-Fluorobenzyl)oxy)-6,7,8,9,9a,10-hexahydro-1H-pyrido[1,2′:3,4]imidazo[1,2-c] pyrimidin-1-one trifluoroacetate salt]
≤ 10000 | ≤ 100 | O=c1nc(OCc2cccc(F)c2F)cc2n1C[C@H]1CCCN21 [Example E101, (R)-3-((2,3-difluorobenzyl)oxy)-7,8,8a, 9-tetrahydropyrrolo[1′, 2′:3, 4]imidazo[1,2-c] pyrimidin-1(6H)-one]
≤ 10000 | ≤ 100 | O=c1nc(OCc2cc(F)cc(F)c2)cc2n1C[C@@H]1CCCCN21 [Example E35, (S)-3-((3,5-Difluorobenzyl)oxy)-6,7,8,9,9a,10-hexahydro-1H-pyrido[1′,2′:3,4]imidazo[1,2-c]pyrimidin-1-one]
≤ 100 | 0.0398 | O=c1nc(OCc2cc(F)c(Oc3ccnc(C(F)(F)F)c3)c(F)c2)cc2n1CC1COCCN21 (centres unmarked) [Example E107, 7-((3,5-Difluoro-4-((2-(trifluoromethyl)pyridin-4-yl)oxy)benzyl)oxy)-3,4, 11, 11a-tetra hydropyrimido[6′,1′:2,3]imidazo[5,1-c][1,4]oxazin-9(1H)-one]
≤ 100 | ≤ 100 | O=c1nc(OCc2ccc(Oc3cnc(C(F)(F)F)nc3)c(F)c2)cc2n1C[C@H]1CCCN21 [Example E69, (R)-3-((3-fluoro-4-((2-(trifluoromethyl)pyrimidin-5-yl)oxy)benzyl)oxy)-7,8,8a, 9-tetra hydropyrrolo[1′,2′:3,4]imidazo[1,2-c]pyrimidin-1(6H)-one]
≤ 100 | ≤ 100 | O=c1nc(OCc2cc(F)c(F)c(F)c2)cc2n1CC1CCCCN21 (centres unmarked) [Example E2, 3-((3,4,5-Trifluorobenzyl)oxy)-6,7,8,9,9a,10-hexahydro-1H-pyrido[1′,2′:3,4]imidazo[1,2-c] pyrimidin-1-one]
≤ 10000 | ≤ 100 | O=c1nc(OCc2cc(F)c(F)c(F)c2)cc2n1C[C@@H]1COCCN21 [Example E123, (R)-7-((3,4,5-trifluorobenzyl)oxy)-3,4,11,11atetrahydropyrimido[6′,1′:2,3]imidazo[5,1-c][1,4] oxazin-9(1H)-one]
≤ 10000 | ≤ 100 | Cn1cc(Oc2ccc(COc3cc4n(c(=O)n3)C[C@H]3CCCN43)cc2F)cn1 [Example E68, (R)-3-((3-fluoro-4-((1-methyl-1H-pyrazol-4-yl)oxy)benzyl)oxy)-7,8,8a, 9-tetrahydro pyrrolo[1′,2′:3,4]imidazo[1,2-c]pyrimidin-1(6H)-one]
≤ 100 | ≤ 100 | O=c1nc(OCc2cccc(F)c2)cc2n1C[C@H]1CCCCN21 [Example E52, (R)-3-((3-Fluorobenzyl)oxy)-6,7,8,9,9a,10-hexahydro-1H-pyrido[1′,2′:3,4]imidazo[1,2-c] pyrimidin-1-one]
≤ 100 | 10 | O=c1nc(OCc2cccc(F)c2)cc2n1C[C@H]1COCCN21 [Example E128, (S)-7-((3-fluorobenzyl)oxy)-3,4,11,11a-tetrahydropyrimido[6′,1′:2,3]imidazo[5,1-c][1,4] oxazin-9(1H)-one]
≤ 10000 | ≤ 100 | Cc1cc(Oc2c(F)cc(COc3cc4n(c(=O)n3)C[C@H]3COCN43)cc2F)ccn1 [Example E161, (S)-6-((3,5-difluoro-4-((2-methylpyridin-4-yl)oxy)benzyl)oxy)-10,10a-dihydro-1H-oxazolo[3′,4′:3,4]imidazo[1,2-c]pyrimidin-8(3H)-one]
≤ 10000 | ≤ 100 | O=c1nc(OCc2ccc(Oc3ccc(F)c(F)c3)c(F)c2)cc2n1CC1CCCCN21 (centres unmarked) [Example E18, 3-((4-(3,4-Difluorophenoxy)-3-fluorobenzyl)oxy)-6,7,8,9,9a,10-hexahydro-1H-pyrido[1′,2′:3,4]imidazo[1,2-c]pyrimidin-1-one]
≤ 10000 | ≤ 100 | O=c1nc(OCc2cc(F)c(OC3(CCF)CC3)c(F)c2)cc2n1C[C@H]1CCCN21 [Example E105, (R)-3-((3,5-difluoro-4-(1-(2-fluoroethyl)cyclopropoxy)benzyl)oxy)-7,8,8a,9-tetrahydro pyrrolo[1′,2′:3,4]imidazo[1,2-c]pyrimidin-1(6H)-one]
≤ 100 | ≤ 1 | N#Cc1cc(COc2cc3n(c(=O)n2)CC2CCCCN32)ccc1Oc1ccc(C(F)(F)F)cc1 (centres unmarked) [Example E23, 5-(((1-Oxo-6,7,8,9,9a,10-hexahydro-1H-pyrido[1′,2′:3,4]imidazo[1,2-c]pyrimidin-3-yl)oxy)methyl)-2-(4-(trifluoromethyl)phenoxy)benzonitrile]
≤ 10000 | ≤ 100 | O=c1nc(OCc2cc(F)c(F)cc2F)cc2n1C[C@@H]1CCCCN21 [Example E59, (S)-3-((2,4,5-Trifluorobenzyl)oxy)-6,7,8,9,9a,10-hexahydro-1H-pyrido[1′,2′:3,4]imidazo[1,2-c]pyrimidin-1-one]
